According to patent US12370193B2, “Method of inhibiting TREM-1” (UNIVERSITY OF FLORIDA RESEARCH FOUNDATION, INCORPORATED, priority 2019, dated 2025):

Assays:
[1] = tested on: TREM-1; assay: TREM-1 surface expression by FACS in LPS-stimulated RAW264.7 cells; format: cell-based, mouse; settings: 50 hr incubation
Procedure: (§1) FIG. 2B are graphs showing TREM-1 gene expression by q-PCR. […] All experiments were performed with 3 biological replicates and the median value of TREM-1 fluorescence was represented by the graph on the bottom.
Flow cytometry and antibodies: For the analysis of macrophage activation, RAW264.7 cells (American Type Culture Collection) were pre-incubated with 5 μM 1903 for 18 h then stimulated with 1 μg/mL LPS (Escherichia coli 0127:B8, Sigma-Aldrich (St. Louis, MO)) for 6 h. RAW264.7 cells were stained with APC conjugated anti-TREM-1 antibody (eBioscience). Cell sorting was performed using LSRII (BD Bioscience).

[2] = tested on: RAW264.7 cells; assay: LXR target, cytokine and SENP gene expression in LPS-stimulated RAW264.7 cells; format: cell-based, mouse
Procedure: FIGS. 3A-3D: Comparison with LXR agonist. […] FIGS. 3C and 3D show log 2 fold change of SENP3 expression in RAW264.7 cells mRNAseq and q-PCR.
(§2) Quantitative RT-PCR: Total RNA was extracted from EL4 or RAW264.7 cells using RNeasy Plus Micro Kit (Qiagen) and the RNA was reverse transcribed using the ABI reverse transcription kit (Applied Biosystems/Thermo Fisher Scientific, Waltham MA). Quantitative PCR was performed with a 7900HT Fast Real Time PCR System (Applied Biosystems) using SYBR green (Roche).
(§3) mRNA sequencing analysis: RAW264.7 cells RNA extraction protocol for RNA seq was derived from Qiagen Kit-74106. Total RNA was quantified using the Qubit 2.0 Fluorometer (Invitrogen, Carlsbad, CA) and run on the Agilent 2100 Bioanalyzer (Agilent Technologies, Santa Clara, CA) for quality assessment. RNA samples of good quality with RNA Integrity Number (RIN)>8.0 were further processed. A RNase-free working environment was maintained and RNase-free tips, Eppendorf tubes and plates were utilized for the subsequent steps. Messenger RNA was selectively isolated from total RNA (300 ng input) using poly-T oligos attached to magnetic beads and converted to sequence-ready libraries using the TruSeq stranded mRNA sample prep protocol (Cat. #: RS-122-2101, Illumina, San Diego, CA). The final libraries were validated on the bioanalyzer DNA chips and qPCR quantified using primers that recognize the illumina adaptors. The libraries were then pooled at equimolar ratios, quantified using qPCR and loaded onto the NextSeq 500 flow cell at 1.8 pM final concentration. They were sequenced using the high-output, paired-end, 75-bp chemistry. Demultiplexed and quality filtered raw reads (fastq) generated from the NextSeq 500 were trimmed (adaptor sequences) using Flexbar 2.4 and aligned to the mouse reference database (mm9) using TopHat version 2.0.9 (Trapnell et al., 2009). HTseq-count version 0.6.1 was used to generate gene counts and differential gene expression analysis was performed using Deseq2 (Anders and Huber, 2010).

[3] = tested on: murine TREM1 promoter; assay: TREM1 promoter reporter (luciferase) assay; format: cell-based, Mus musculus
Procedure: Each LXRβ, PPARγ, and RORγ full length plasmid was co-transfected with TREM1/pGL3 using X-tremeGENE 9 into HEK293T cells. After 48 hrs, luciferase activity was measured using BriteLite plus assay system (PerkinElmer).

[4] = tested on: diet-induced obesity; assay: Diet-induced obese (DIO) mouse model; format: in vivo, DIO mice
[5] = tested on: TREM-1; assay: TREM-1 gene expression in LPS-stimulated RAW264.7 cells (RNA sequencing, qPCR); format: cell-based, mouse
Procedure: as §1, §2, §3

[6] = 22-week-old DIO mice, 14 days, 20 mg/kg
[7] = DIO mice, 20 mg/kg i.p. for 14 days

## Cc1cc(CN2CCN(Cc3ccncc3)CC2)ccc1-c1ccc(C(O)(C(F)(F)F)C(F)(F)F)cc1 [SR1903, 1,1,1,3,3,3-hexafluoro-2-(2′-methyl-4′-((4-(pyridin-4-ylmethyl)piperazin-1-yl)methyl)-[1,1′-biphenyl]-4-yl)propan-2-ol]
[1]
  LPS-induced TREM1 cell surface expression: completely blocked
[2]; LPS-stimulated RAW264.7 cells
  expression of ACACA and FASN: increased
[2]; LPS-stimulated RAW264.7 cells, RNA sequencing
  expression of LXR target genes including ABCG1 and SCD: increased the expression
[2]; LPS-stimulated RAW264.7 cells, RNA sequencing, confirmed by qPCR
  expression of IL6 and IL33: robustly dampened
[2]; LPS-stimulated RAW cells, RNA sequencing
  expression of SENP2 and SENP6: repressed
[2]; LPS-stimulated RAW cells, RNA sequencing, qPCR
  expression of SENP3: increased the expression
[3]; co-expression with PPARγ and LXRβ
  effect on TREM1 promoter activity: little effect
[3]; co-expression with RORγ
  attenuation of TREM1 promoter activity: ~50%
[4]; [6]
  obesity related thymic involution: protected from obesity related thymic involution
  thymus weight: increase in thymus weight
[4]; DIO mice
  Socs3 expression in the hypothalamus: repressed
  fasting and fed insulin levels: improved
  fasting leptin levels: did not alter
  food intake: reduced food intake
  leptin resistance (leptin sensitivity test): reduced
[4]; DIO mice thymocytes
  differentiation of αβTCR+CD4+ and αβTCR+CD8+ cells: no effect
  λδT cell differentiation: increase
[4]; [7]
  HDL, TAG, and FFA: no effect
  fasting glucose levels: improved
  glucose excursion in glucose tolerance test: statistically significant improvement
  total cholesterol and LDL: reduced
[4]; DIO mice, 14 days of treatment
  body weight reduction: ~15%
[4]; DIO mice, 14 days, determined by NMR
  reduction of fat mass: ~17%
[4]; DIO mice, compared to vehicle
  leptin in freely feeding mice: statistically reduced
[5]; 26 hr exposure
  LPS induction of TREM-1 gene expression (qPCR): significantly repressed
[5]; 50 hr treatment
  LPS induction of TREM-1 gene expression (qPCR): maintained repression
[5]; LPS-stimulated RAW264.7 cells, 10 μM compound vs DMSO-only
  TREM1 signaling expression (RNA sequencing): significantly suppressed
